Measured values taken from US10865211B2 (ENANTA PHARMACEUTICALS, INC, priority 2018, dated 2020).

Experiments:
2.2.15 cells = assay: Antiviral activity in 2.2.15 cells: reduction of viral product accumulation (qPCR, HBsAg/HBeAg ELISA); type: cell-based, HBV; settings: Hepatitis B virus, 120 h, day 5 post treatment, concentration reducing viral product accumulation in cell lysates or supernatants by 50% relative to no drug controls
Protocol: 2.2.15 cells are passaged upon attaining confluency in DMEM/F12 media in the presence of 10% FBS, Penn/Strep, and 250 ug/mL G418. Novel compounds are 5 fold serially diluted in DMSO and added to 96 well plates containing 35,000 cells/well at a 1:200 dilution so that the final concentration of DMSO is 0.5%. On day 5, post treatment cell lysates and supernatants are harvested for analysis.
Cells are lysed using Agilent Sidestep Lysis buffer, diluted 1:100 and quantified via quantitative real time PCR. Commercially available ELISA kits are used to quantitate the viral proteins HBsAg (Alpco) or HBeAg (US Biological) by following the manufacturer's recommended protocol after diluting samples to match the linear range of their respective assays. Irrespective of readout, compound concentrations that reduce viral product accumulation in the cell lysates or supernatants by 50% relative to no drug controls (EC50) are reported; EC50 ranges are as follows: A<0.1 μM; B 0.1-1 μM; C>1 μM.

[1] = Compound induced cellular toxicity in HepG2 cells (ATPlite); type: cell-based; settings: human, three days, ATPlite 1 Step, concentration reducing total ATP levels by 50% relative to no drug controls
Protocol: At day 3, post seeding cells are treated with ATPlite 1 Step according to the manufacturer's instructions.

For O=C(O)c1cn2c(cc1=O)-c1oc3ccccc3c1CC2c1ccccc1 (centres unmarked) [Example 2, 2-oxo-6-phenyl-6,7-dihydro-2H-benzofuro[2,3-a]quinolizine-3-carboxylic acid], the EC50 (2.2.15 cells) was > 1 µM and the CC50 at 3 days [1] was > 25 µM.
In the case of CC(C)(C)[C@@H]1Cc2c(oc3ccccc23)-c2cc(=O)c(C(=O)O)cn21 [Example 3, (S)-6-(tert-butyl)-2-oxo-6,7-dihydro-2H-benzofuro[2,3-a]quinolizine-3-carboxylic acid], the EC50 (2.2.15 cells) is reported as < 0.1 µM and the CC50 at 3 days [1] is reported as > 25 µM.
For CC(C)(C)[C@@H]1Cc2c(oc3c(OC(F)F)cccc23)-c2cc(=O)c(C(=O)O)cn21 [Example 4, (S)-6-(tert-butyl)-11-(difluoromethoxy)-2-oxo-6,7-dihydro-2H-benzofuro[2,3-a]quinolizine-3-carboxylic acid], the EC50 (2.2.15 cells) was < 0.1 µM and the CC50 at 3 days [1] was > 25 µM.
In the case of CC(C)(C)[C@@H]1Cc2c(oc3cc(OC(F)F)ccc23)-c2cc(=O)c(C(=O)O)cn21 [Example 6, (S)-6-(tert-butyl)-10-(difluoromethoxy)-2-oxo-6,7-dihydro-2H-benzofuro[2,3-a]quinolizine-3-carboxylic acid], the EC50 (2.2.15 cells) is reported as < 0.1 µM and the CC50 at 3 days [1] is reported as 10 to 25 µM.
For CC(C)(C)[C@@H]1Cc2c(oc3cc(OC(F)F)ccc23)-c2cc(=O)c(-c3ncn[nH]3)cn21 [Example 7, (S)-6-(tert-butyl)-10-(difluoromethoxy)-3-(1H-1,2,4-triazol-5-yl)-6,7-dihydro-2H-benzofuro[2,3-a]quinolizin-2-one], the EC50 (2.2.15 cells) was < 0.1 µM and the CC50 at 3 days [1] was > 25 µM.
In the case of CC(C)(C)[C@@H]1Cc2c(oc3c(OC(F)F)cccc23)-c2cc(=O)c(-c3ncn[nH]3)cn21 [Example 8, (S)-6-(tert-butyl)-11-(difluoromethoxy)-3-(1H-1,2,4-triazol-5-yl)-6,7-dihydro-2H-benzofuro[2,3-a]quinolizin-2-one], the EC50 (2.2.15 cells) is reported as < 0.1 µM and the CC50 at 3 days [1] is reported as > 25 µM.
With Cn1cc(-c2ccc3c4c(oc3c2)-c2cc(=O)c(C(=O)O)cn2[C@H](C(C)(C)C)C4)cn1 [Example 10, (S)-6-(tert-butyl)-10-(1-methyl-1H-pyrazol-4-yl)-2-oxo-6,7-dihydro-2H-benzofuro[2,3-a]quinolizine-3-carboxylic acid] the EC50 (2.2.15 cells) was < 0.1 µM and the CC50 at 3 days [1] was > 25 µM.
For Cn1nccc1-c1ccc2c3c(oc2c1)-c1cc(=O)c(C(=O)O)cn1[C@H](C(C)(C)C)C3 [Example 11, (S)-6-(tert-butyl)-10-(1-methyl-1H-pyrazol-5-yl)-2-oxo-6,7-dihydro-2H-benzofuro[2,3-a]quinolizine-3-carboxylic acid], the EC50 (2.2.15 cells) was < 0.1 µM and the CC50 at 3 days [1] was > 25 µM.
In the case of CC(C)(C)[C@@H]1Cc2c(oc3cc(C#N)ccc23)-c2cc(=O)c(C(=O)O)cn21 [Example 12, (S)-6-(tert-butyl)-10-cyano-2-oxo-6,7-dihydro-2H-benzofuro[2,3-a]quinolizine-3-carboxylic acid], the EC50 (2.2.15 cells) is reported as < 0.1 µM and the CC50 at 3 days [1] is reported as > 25 µM.
In the case of CC(C)(C)[C@@H]1Cc2c(oc3cc(-c4cn[nH]c4)ccc23)-c2cc(=O)c(C(=O)O)cn21 [Example 13, (S)-6-(tert-butyl)-2-oxo-10-(1H-pyrazol-4-yl)-6,7-dihydro-2H-benzofuro[2,3-a]quinolizine-3-carboxylic acid], the EC50 (2.2.15 cells) is reported as < 0.1 µM and the CC50 at 3 days [1] is reported as > 25 µM.
For CC(C)(C)[C@@H]1Cc2c(oc3cc(-c4ccn[nH]4)ccc23)-c2cc(=O)c(C(=O)O)cn21 [Example 14, (S)-6-(tert-butyl)-2-oxo-10-(1H-pyrazol-5-yl)-6,7-dihydro-2H-benzofuro[2,3-a]quinolizine-3-carboxylic acid], the EC50 (2.2.15 cells) was < 0.1 µM and the CC50 at 3 days [1] was > 25 µM.
In the case of CC(C)(C)[C@@H]1Cc2c(oc3cc(-c4cnco4)ccc23)-c2cc(=O)c(C(=O)O)cn21 [Example 17, (S)-6-(tert-butyl)-10-(oxazol-5-yl)-2-oxo-6,7-dihydro-2H-benzofuro[2,3-a]quinolizine-3-carboxylic acid], the EC50 (2.2.15 cells) is reported as < 0.1 µM and the CC50 at 3 days [1] is reported as > 25 µM.
With CC(C)(C)[C@@H]1Cc2c(oc3cc(-c4nccs4)ccc23)-c2cc(=O)c(C(=O)O)cn21 [Example 21, (S)-6-(tert-butyl)-2-oxo-10-(thiazol-2-yl)-6,7-dihydro-2H-benzofuro[2,3-a]quinolizine-3-carboxylic acid] the EC50 (2.2.15 cells) was < 0.1 µM and the CC50 at 3 days [1] was 10 to 25 µM.
For CC(C)(C)[C@@H]1Cc2c(oc3cc(C4CC4)ccc23)-c2cc(=O)c(C(=O)O)cn21 [Example 23, (S)-6-(tert-butyl)-10-cyclopropyl-2-oxo-6,7-dihydro-2H-benzofuro[2,3-a]quinolizine-3-carboxylic acid], the EC50 (2.2.15 cells) was < 0.1 µM and the CC50 at 3 days [1] was 10 to 25 µM.
With Cc1ccc2c3c(oc2c1)-c1cc(=O)c(C(=O)O)cn1[C@H](C(C)(C)C)C3 [Example 24, (S)-6-(tert-butyl)-10-methyl-2-oxo-6,7-dihydro-2H-benzofuro[2,3-a]quinolizine-3-carboxylic acid] the EC50 (2.2.15 cells) was < 0.1 µM and the CC50 at 3 days [1] was > 25 µM.
For CCc1ccc2c3c(oc2c1)-c1cc(=O)c(C(=O)O)cn1[C@H](C(C)(C)C)C3 [Example 25, (S)-6-(tert-butyl)-10-ethyl-2-oxo-6,7-dihydro-2H-benzofuro[2,3-a]quinolizine-3-carboxylic acid], the EC50 (2.2.15 cells) was < 0.1 µM and the CC50 at 3 days [1] was > 25 µM.
In the case of CC(C)(C)[C@@H]1Cc2c(oc3c(-c4ccoc4)cccc23)-c2cc(=O)c(C(=O)O)cn21 [Example 26, (S)-6-(tert-butyl)-11-(furan-3-yl)-2-oxo-6,7-dihydro-2H-benzofuro[2,3-a]quinolizine-3-carboxylic acid], the EC50 (2.2.15 cells) is reported as < 0.1 µM and the CC50 at 3 days [1] is reported as 10 to 25 µM.
In the case of CC(C)(C)[C@@H]1Cc2c(oc3c(-c4cnco4)cccc23)-c2cc(=O)c(C(=O)O)cn21 [Example 27, (S)-6-(tert-butyl)-11-(oxazol-5-yl)-2-oxo-6,7-dihydro-2H-benzofuro[2,3-a]quinolizine-3-carboxylic acid], the EC50 (2.2.15 cells) is reported as < 0.1 µM and the CC50 at 3 days [1] is reported as 10 to 25 µM.
For Cn1nccc1-c1cccc2c3c(oc12)-c1cc(=O)c(C(=O)O)cn1[C@H](C(C)(C)C)C3 [Example 28, (S)-6-(tert-butyl)-11-(1-methyl-1H-pyrazol-5-yl)-2-oxo-6,7-dihydro-2H-benzofuro[2,3-a]quinolizine-3-carboxylic acid], the EC50 (2.2.15 cells) was < 0.1 µM and the CC50 at 3 days [1] was > 25 µM.
For Cn1cc(-c2cccc3c4c(oc23)-c2cc(=O)c(C(=O)O)cn2[C@H](C(C)(C)C)C4)cn1 [Example 29, (S)-6-(tert-butyl)-11-(1-methyl-1H-pyrazol-4-yl)-2-oxo-6,7-dihydro-2H-benzofuro[2,3-a]quinolizine-3-carboxylic acid], the EC50 (2.2.15 cells) was < 0.1 µM and the CC50 at 3 days [1] was 10 to 25 µM.
With Cn1ccc(-c2cccc3c4c(oc23)-c2cc(=O)c(C(=O)O)cn2[C@H](C(C)(C)C)C4)n1 [Example 30, (S)-6-(tert-butyl)-11-(1-methyl-1H-pyrazol-3-yl)-2-oxo-6,7-dihydro-2H-benzofuro[2,3-a]quinolizine-3-carboxylic acid] the EC50 (2.2.15 cells) was < 0.1 µM and the CC50 at 3 days [1] was 10 to 25 µM.
In the case of CC(C)(C)[C@@H]1Cc2c(oc3c(C#N)cccc23)-c2cc(=O)c(C(=O)O)cn21 [Example 31, (S)-6-(tert-butyl)-11-cyano-2-oxo-6,7-dihydro-2H-benzofuro[2,3-a]quinolizine-3-carboxylic acid], the EC50 (2.2.15 cells) is reported as < 0.1 µM and the CC50 at 3 days [1] is reported as > 25 µM.
For CC(C)(C)[C@@H]1Cc2c(oc3c(-c4cn[nH]c4)cccc23)-c2cc(=O)c(C(=O)O)cn21 [Example 32, (S)-6-(tert-butyl)-2-oxo-11-(1H-pyrazol-4-yl)-6,7-dihydro-2H-benzofuro[2,3-a]quinolizine-3-carboxylic acid], the EC50 (2.2.15 cells) was < 0.1 µM and the CC50 at 3 days [1] was > 25 µM.
With CC(C)(C)[C@@H]1Cc2c(oc3c(-c4ccn[nH]4)cccc23)-c2cc(=O)c(C(=O)O)cn21 [Example 33, (S)-6-(tert-butyl)-2-oxo-11-(1H-pyrazol-5-yl)-6,7-dihydro-2H-benzofuro[2,3-a]quinolizine-3-carboxylicacid] the EC50 (2.2.15 cells) was < 0.1 µM and the CC50 at 3 days [1] was > 25 µM.
In the case of CC(C)(C)[C@@H]1Cc2c(oc3c(-c4ccco4)cccc23)-c2cc(=O)c(C(=O)O)cn21 [Example 34, (S)-6-(tert-butyl)-11-(furan-2-yl)-2-oxo-6,7-dihydro-2H-benzofuro[2,3-a]quinolizine-3-carboxylic acid], the EC50 (2.2.15 cells) is reported as < 0.1 µM and the CC50 at 3 days [1] is reported as 10 to 25 µM.
For CC(C)(C)[C@@H]1Cc2c(oc3c(-c4ccsc4)cccc23)-c2cc(=O)c(C(=O)O)cn21 [Example 35, (S)-6-(tert-butyl)-2-oxo-11-(thiophen-3-yl)-6,7-dihydro-2H-benzofuro[2,3-a]quinolizine-3-carboxylic acid], the EC50 (2.2.15 cells) was < 0.1 µM and the CC50 at 3 days [1] was > 25 µM.
With CC(C)(C)[C@@H]1Cc2c(oc3c(N4CCC(F)(F)C4)cccc23)-c2cc(=O)c(C(=O)O)cn21 [Example 36, (S)-6-(tert-butyl)-11-(3,3-difluoropyrrolidin-1-yl)-2-oxo-6,7-dihydro-2H-benzofuro[2,3-a]quinolizine-3-carboxylic acid] the EC50 (2.2.15 cells) was < 0.1 µM and the CC50 at 3 days [1] was > 25 µM.
In the case of CC(C)(C)[C@@H]1Cc2c(oc3c(-c4cccs4)cccc23)-c2cc(=O)c(C(=O)O)cn21 [Example 37, (S)-6-(tert-butyl)-2-oxo-11-(thiophen-2-yl)-6,7-dihydro-2H-benzofuro[2,3-a]quinolizine-3-carboxylic acid], the EC50 (2.2.15 cells) is reported as < 0.1 µM and the CC50 at 3 days [1] is reported as > 25 µM.
